Values after ≈ are worked out from the molar mass of the structure shown.
Tested on: murine P388 lymphocytic leukemia (PS) cell line
Assay: murine P388 lymphocytic leukemia (PS system) cell line growth inhibition, standard National Cancer Institute protocol
Assay type: cell-based

Compound | IC50 (Mus musculus, P388, murine P388 lymphocytic leukemia (PS system) cell line, read-out: PS cell line activity ED50) | PS cell line activity ED50 (murine P388 lymphocytic leukemia (PS system) cell line)
O=C1CCc2ccc(O)c(c2)Oc2ccc(cc2)[C@@H]2O[C@@H]2CO1 (relative stereo) [Combretastatin D-1] | 3.3 µg/mL (≈ 10.6 µM) | 
O=C1CCc2ccc(O)c(c2)Oc2ccc(cc2)/C=C\CO1 [Combretastatin D-2] |  | 5.2 µg/mL
